Results reported in publication PMC7469689, “Substituted 4,5′-Bithiazoles as Catalytic Inhibitors of Human DNA Topoisomerase IIα” (Journal of Chemical Information and Modeling, 2020).

Key:
HepG2 cells [1] = test: Cell proliferation, Ki67 flow cytometry; assay type: cell-based, human; conditions: 24 h, 50 μM
human topo IIα [2] = biological target: T1, human topo IIα (Homo sapiens, UniProt P11388); test: Human topo IIα-mediated kDNA decatenation assay; assay type: biochemical
T1 construct: purchased Inspiralis (Norwich, U.K.)
Protocol: We made use of the human topo II decatenation assay kit from Inspiralis (Norwich, U.K.) to assess the ability of selected compounds to impede DNA decatenation.[89],[90] It was performed for topo IIα and topo IIβ isoforms using the protocol as described previously.[35]

[3] = biological target: T2, human topo IIα ATPase domain (Homo sapiens, UniProt P11388); test: Microscale thermophoresis (MST) binding; conditions: truncated human topo IIα ATPase domain; three independent runs
T2 construct: the ATPase domain of human topo IIα with 1–453 amino acid residues; purchased Inspiralis

human topo IIα [4] = biological target: T1, human topo IIα; test: ATPase activity (ATP hydrolysis) assay, pyruvate kinase/lactate dehydrogenase coupled; assay type: biochemical
human topo IIα [5] = biological target: T1, human topo IIα; test: Human topo IIα-mediated cleavage assay; assay type: biochemical
Source text: To determine whether compounds act as catalytic inhibitors, a cleavage assay was next performed for compounds 1 and 9.
We performed the assay in collaboration with Inspiralis (Norwich, U.K.).

HepG2 cells [6] = test: DNA double-strand break induction, γ-H2AX assay; assay type: cell-based, human
HepG2 cells [7] = test: Cell cycle analysis by flow cytometry; assay type: cell-based, human; conditions: 24 h
[8] = 500 μM (compound 1: solubility problems, erratic readings)

T1 sequence (P11388 whole entry): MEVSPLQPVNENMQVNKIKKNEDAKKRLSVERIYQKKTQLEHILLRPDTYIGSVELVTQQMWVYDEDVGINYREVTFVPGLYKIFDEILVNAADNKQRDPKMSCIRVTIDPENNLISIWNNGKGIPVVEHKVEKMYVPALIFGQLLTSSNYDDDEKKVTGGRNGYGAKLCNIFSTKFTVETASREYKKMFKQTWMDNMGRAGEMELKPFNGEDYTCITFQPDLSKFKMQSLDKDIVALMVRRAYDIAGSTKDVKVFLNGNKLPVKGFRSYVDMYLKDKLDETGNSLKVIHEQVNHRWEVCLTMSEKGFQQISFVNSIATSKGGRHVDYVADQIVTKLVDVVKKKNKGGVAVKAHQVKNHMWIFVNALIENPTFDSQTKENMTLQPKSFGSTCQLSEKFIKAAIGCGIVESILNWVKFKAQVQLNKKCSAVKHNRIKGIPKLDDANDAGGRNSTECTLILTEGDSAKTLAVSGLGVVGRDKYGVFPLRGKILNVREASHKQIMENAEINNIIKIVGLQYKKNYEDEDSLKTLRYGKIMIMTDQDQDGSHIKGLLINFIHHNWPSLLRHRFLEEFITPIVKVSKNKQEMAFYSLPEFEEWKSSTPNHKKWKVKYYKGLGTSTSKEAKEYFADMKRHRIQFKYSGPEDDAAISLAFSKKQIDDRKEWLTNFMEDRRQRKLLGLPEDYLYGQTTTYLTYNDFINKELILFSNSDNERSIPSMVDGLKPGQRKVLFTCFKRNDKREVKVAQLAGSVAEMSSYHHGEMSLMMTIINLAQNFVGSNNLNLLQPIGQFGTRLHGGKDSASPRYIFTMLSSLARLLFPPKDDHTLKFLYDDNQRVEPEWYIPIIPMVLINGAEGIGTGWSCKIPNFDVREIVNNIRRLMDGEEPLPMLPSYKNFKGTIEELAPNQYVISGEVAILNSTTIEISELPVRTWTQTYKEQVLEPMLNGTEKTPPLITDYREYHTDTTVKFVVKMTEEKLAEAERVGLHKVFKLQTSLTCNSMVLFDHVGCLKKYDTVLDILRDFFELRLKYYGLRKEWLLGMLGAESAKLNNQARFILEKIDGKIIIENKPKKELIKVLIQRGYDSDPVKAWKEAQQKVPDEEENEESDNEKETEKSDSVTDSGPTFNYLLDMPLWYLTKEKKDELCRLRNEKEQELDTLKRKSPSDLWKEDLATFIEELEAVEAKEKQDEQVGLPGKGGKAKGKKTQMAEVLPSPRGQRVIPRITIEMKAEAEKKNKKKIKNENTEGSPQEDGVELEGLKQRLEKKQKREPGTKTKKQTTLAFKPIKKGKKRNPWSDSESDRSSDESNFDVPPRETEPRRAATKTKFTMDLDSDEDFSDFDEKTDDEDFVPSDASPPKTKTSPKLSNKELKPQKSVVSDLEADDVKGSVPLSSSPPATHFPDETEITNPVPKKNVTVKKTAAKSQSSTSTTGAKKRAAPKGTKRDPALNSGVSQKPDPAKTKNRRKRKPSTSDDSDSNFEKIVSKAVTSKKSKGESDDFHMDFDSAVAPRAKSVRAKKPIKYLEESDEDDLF
T2 sequence (P11388 1-453): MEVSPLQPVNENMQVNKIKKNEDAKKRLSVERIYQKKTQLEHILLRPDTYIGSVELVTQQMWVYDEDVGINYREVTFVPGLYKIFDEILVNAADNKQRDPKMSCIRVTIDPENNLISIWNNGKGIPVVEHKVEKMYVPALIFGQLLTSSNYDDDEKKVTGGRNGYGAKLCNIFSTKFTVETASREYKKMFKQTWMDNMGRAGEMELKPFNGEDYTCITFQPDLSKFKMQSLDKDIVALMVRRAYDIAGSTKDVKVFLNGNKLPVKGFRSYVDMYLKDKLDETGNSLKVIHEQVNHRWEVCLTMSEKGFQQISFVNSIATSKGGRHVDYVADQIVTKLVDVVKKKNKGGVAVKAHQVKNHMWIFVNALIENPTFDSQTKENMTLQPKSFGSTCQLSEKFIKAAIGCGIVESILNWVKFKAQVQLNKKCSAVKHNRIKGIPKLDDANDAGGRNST

Cc1nc(N)sc1-c1csc(Nc2ccc(C(F)(F)F)cc2)n1 [Compound 1]
cell proliferation (Ki67) (HepG2 cells [1]): 65.1% | % Decatenated Average (human topo IIα [2]; 31.5 μM): 80.9% | inhibition of decatenation (human topo IIα [2]; 125 μM): complete inhibition | inhibition of decatenation (human topo IIα [2]; 500 μM): complete inhibition | Kd [3]: 50.6 ± 7.6 µM | Percentage ATPase activity Run 1 (human topo IIα [4]; 3.9 μM): 92.25% | Percentage ATPase activity Run 2 (human topo IIα [4]; 3.9 μM): 88.37% | Percentage ATPase activity Run 1 (human topo IIα [4]; 31.5 μM): 96.12% | Percentage ATPase activity Run 2 (human topo IIα [4]; 31.5 μM): 94.57% | Percentage ATPase activity Run 1 (human topo IIα [4]; 125 μM): 24.81% | Percentage ATPase activity Run 2 (human topo IIα [4]; 125 μM): 16.28% | inhibition of topo IIα-mediated ATP hydrolysis (in words) (human topo IIα [4]; 125 μM): almost fully inhibited | Percentage ATPase activity Run 1 (human topo IIα [4]; [8]): 65.12% | Percentage ATPase activity Run 2 (human topo IIα [4]; [8]): 36.43% | % Linear DNA (first column) (human topo IIα [5]; 3.9 μM): 8.05% | % Linear DNA (second column) (human topo IIα [5]; 3.9 μM): 5.57% | % Linear DNA (first column) (human topo IIα [5]; 31.5 μM): 6.32% | % Linear DNA (second column) (human topo IIα [5]; 31.5 μM): 7.77% | % Linear DNA (first column) (human topo IIα [5]; 125 μM): 3.02% | % Linear DNA (second column) (human topo IIα [5]; 125 μM): 2.85% | % Linear DNA (first column) (human topo IIα [5]; 500 μM): 2.45% | % Linear DNA (second column) (human topo IIα [5]; 500 μM): 2.98% | linear DNA formation in cleavage assay (in words) (human topo IIα [5]; four concentrations): did not reveal a significant amount of linear DNA above the background level | induction of DNA double-strand breaks (γH2AX) (HepG2 cells [6]; 10 μM): did not induce an increase in DNA-DSB formation | induction of DNA double-strand breaks (γH2AX) (HepG2 cells [6]; 50 μM): did not induce an increase in DNA-DSB formation | cell cycle arrest (in words) (HepG2 cells [7]): cell cycle arrest in the G1 phase
